Consider five compounds from ChEMBL document CHEMBL1201862, “PubChem BioAssay data set” (2004).

Among the test systems are DLD-1; DMS-114; DMS-273; HOP-18; KM-20L2; LXFL 529; M19-MEL; RXF 631; XF498.
Common to all, as to experiment: NCI anticancer screen, dose series, 48 h

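96-well plates; 48 h exposure; 5 concentrations. Endpoints by linear interpolation between flanking doses. Not reached: highest tested concentration assigned. GI50 marks 50% less growth.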 The source made the active and inactive calls. Cut-off read from the data, not from the text of the source: active = GI50 up to about 1.1 µM and inactive = higher.

Regarding `COc1ccc2nc3cccc(C(=O)NCCN(C)C)c3nc2c1`, the GI50 in the assay on DLD-1 is 1.37 µM (inactive); with DMS-114, 1.29 µM (inactive); with DMS-273, 1.44 µM (inactive); in the assay with HOP-18, 3.19 µM (inactive); with KM-20L2, 2.2 µM (inactive); in the assay with LXFL 529 it was 1.26 µM (inactive). The results for the GI50 in the assay with M19-MEL, in the assay with RXF 631 and in the assay with XF498 were 1.64 µM (inactive), 3.17 µM (inactive) and 0.292 µM (active), respectively.

Regarding `COC1=CC(=O)NCCN1`, the GI50 with DLD-1 is > 100 µM (inactive); in the assay on DMS-114, > 100 µM (inactive); in the assay with DMS-273 it was 78.7 µM (inactive); in the assay on HOP-18, > 100 µM (inactive); in the assay with KM-20L2 it was > 100 µM (inactive); with LXFL 529, > 100 µM (inactive). For the same compound, the GI50 with M19-MEL, with RXF 631 and with XF498 was > 100 µM (inactive) throughout.

With `CCOC(=O)CCC(NC(=O)c1ccc(/N=C/c2nc3ccccc3nc2-c2ccccc2)cc1)C(=O)OCC` (centres undefined), the GI50 in the assay with DLD-1 was > 100 µM (inactive); in the assay on DMS-114, > 100 µM (inactive); in the assay on DMS-273, > 100 µM (inactive); in the assay with HOP-18, 35.4 µM (inactive); in the assay with KM-20L2, > 100 µM (inactive); in the assay on LXFL 529, > 100 µM (inactive). In addition, the GI50 in the assay on RXF 631 and with XF498 was > 100 µM (inactive) throughout.

Turning to `CN(C)C(=O)/N=c1\ss/c(=N\C(=S)N(C)C)n1-c1ccccc1`, the GI50 with DLD-1 was 26.6 µM (inactive); in the assay on DMS-114 it was 10.3 µM (inactive); in the assay on DMS-273 it was 0.125 µM (active); with HOP-18 it was > 10 µM (inactive); in the assay with KM-20L2, 54 µM (inactive); with LXFL 529, 7.55 µM (inactive). Moreover, the results for the GI50 in the assay on M19-MEL, in the assay with RXF 631 and with XF498 were 31.9 µM (inactive), 36.1 µM (inactive) and 43.7 µM (inactive), respectively.

`COC(=O)c1ncc2c(=O)[nH]c3ccccc3c2c1C(=O)OC`: the GI50 in the assay on DLD-1, in the assay on DMS-114, in the assay with DMS-273, in the assay on HOP-18, in the assay on KM-20L2 and with LXFL 529 was > 100 µM (inactive) throughout. Besides, the GI50 with M19-MEL, in the assay with RXF 631 and with XF498 was > 100 µM (inactive) throughout.
